Reference: patent publication US20100029604A1, “ANTIBACTERIAL COMBINATION AND ITS USE” (priority 2007, published 2010)
≈ marks a conversion by molar mass, not a printed value. Read-outs that look alike come from different tables or passages of the source.

Columns and labels:
E. coli TEM-2 = type: cell-based; details: TEM-2, class A, inhibitor constant 4 μg/mL
E. coli SHV-3 = assay: Synergy MIC, inhibitor at 4 μg/mL (Example 4); type: cell-based; details: SHV-3, class A, inhibitor constant 4 μg/mL
C. freundii AmpC = assay: Synergy MIC, inhibitor at 4 μg/mL (Example 4); type: cell-based, Citrobacter freundii; details: class C, inhibitor constant 4 μg/mL
Protocol: The in vitro activities of the antibiotics were determined by the broth microdilution method and agar dilution technique as recommended by CLSI guidelines. The MIC experiments were performed in duplicate in 96-well microtiter plates using MHB. Serial twofold dilutions of each antibiotic either alone or in combination with a constant amount (4 μg/mL) of a β-lactamase inhibitor were prepared in MHBII broth. A sterile pipette tip was used to mix the contents of each well (one tip was used going from the low to the high concentration in the same column). The bacterial suspension with final inoculum 10^5 CFU/mL was transferred to the test medium containing the antibacterial substances by a multipoint inoculator (Dynatech, Chantilly, Va., USA). The plates were then incubated at 35° C. for 24 h.
Following procedures identical to those described in Example 3, representative compound of Formula (I) was tested for its ability to enhance antibiotic efficacy against Class C β-lactamase positive bacterial strains that are highly resistant to β-lactam antibiotics. Class C enzymes included AmpC β-lactamases of Enterobacter Cloacae and Citrobacter freundii.

Escherichia coli OXA-2 = assay: MIC, characterised β-lactamase producing strain (Example 5, Tables 5-7); type: cell-based
Protocol: (§1) The MIC experiments were performed in duplicate in 96-well microtiter plates using CAMHB. Serial twofold dilutions of each antibiotic either alone or in combination with constant concentration ratio of a β-lactamase inhibitor (2:1) were prepared in CAMHB. The bacterial suspension with final inoculum 10^5 CFU/mL was transferred to the test medium containing the antibacterial substances. In each well of a 96-well microtiter plate was combined 50 μL of bacterial inoculum, 50 μL of antibiotic dilutions (or media for determination of the MIC of the antibiotic in the absence of test compound). Each plate included 4 wells with no bacterial inoculum (negative control) and 4 wells with no test compound and no antibiotic (positive control). The plates were incubated at 35° C. for 24 h. Purity check and colony counts on each inoculum suspension was performed to ensure that the final inoculum concentration routinely obtained closely approximates 5×10^5 CFU/mL. In addition the assay is routinely monitored by testing standard antibiotics and ensuring that MIC values are within the recommended ranges for the respective strains.
(§2) This test permits comparisons to be made between bacterial growth in the presence of antibiotic alone and bacterial growth in the presence of both an antibiotic and a novel (test) compound.

Escherichia coli OXA-3 = assay: as above; type: cell-based
Protocol: as §1, §2

Escherichia coli SHV-2A = assay: as above; type: cell-based
Protocol: as §1, §2

Escherichia coli SHV-3 = assay: as above; type: cell-based
Protocol: as §1, §2

Escherichia coli TEM-2 = assay: as above; type: cell-based
Protocol: as §1, §2

Escherichia coli TEM-31 = assay: as above; type: cell-based
Protocol: as §1, §2

Escherichia coli TEM-3 = assay: as above; type: cell-based
Protocol: as §1, §2

[1] = system: Klebsiella oxytoca K1 highperproduced; assay: as above; type: cell-based
Protocol: as §1, §2

[2] = system: Pseudomonas aeruginosa CARB-3; assay: as above; type: cell-based
Protocol: as §1, §2

Escherichia coli FOX-1 = assay: as above; type: cell-based
Protocol: as §1, with “Serial twofold dilutions of each antibiotic either alone or in combination with constant concentration ratio of a β-lactamase inhibitor (2:1) were prepared in CAMHB.” left out
as §2

Escherichia coli FOX-2 = assay: as above; type: cell-based
Protocol: as §1, with “Serial twofold dilutions of each antibiotic either alone or in combination with constant concentration ratio of a β-lactamase inhibitor (2:1) were prepared in CAMHB.” left out
as §2

Escherichia coli OXA-7 = assay: as above; type: cell-based
Protocol: as §1, with “Serial twofold dilutions of each antibiotic either alone or in combination with constant concentration ratio of a β-lactamase inhibitor (2:1) were prepared in CAMHB.” left out
as §2

Escherichia coli SHV-1 = assay: as above; type: cell-based
Protocol: as §1, with “Serial twofold dilutions of each antibiotic either alone or in combination with constant concentration ratio of a β-lactamase inhibitor (2:1) were prepared in CAMHB.” left out
as §2

Escherichia coli SHV-4 = assay: as above; type: cell-based
Protocol: as §1, with “Serial twofold dilutions of each antibiotic either alone or in combination with constant concentration ratio of a β-lactamase inhibitor (2:1) were prepared in CAMHB.” left out
as §2

Escherichia coli TEM-21 = assay: as above; type: cell-based
Protocol: as §1, with “Serial twofold dilutions of each antibiotic either alone or in combination with constant concentration ratio of a β-lactamase inhibitor (2:1) were prepared in CAMHB.” left out
as §2

Escherichia coli TEM-36 = assay: as above; type: cell-based
Protocol: as §1, with “Serial twofold dilutions of each antibiotic either alone or in combination with constant concentration ratio of a β-lactamase inhibitor (2:1) were prepared in CAMHB.” left out
as §2

Escherichia coli TEM-8 = assay: as above; type: cell-based
Protocol: as §1, with “Serial twofold dilutions of each antibiotic either alone or in combination with constant concentration ratio of a β-lactamase inhibitor (2:1) were prepared in CAMHB.” left out
as §2

[3] = system: Klebsiella pneumoniae CMY-2; assay: as above; type: cell-based
Protocol: as §1, with “Serial twofold dilutions of each antibiotic either alone or in combination with constant concentration ratio of a β-lactamase inhibitor (2:1) were prepared in CAMHB.” left out
as §2

[4] = system: Klebsiella pneumoniae LAT-2; assay: as above; type: cell-based
Protocol: as §1, with “Serial twofold dilutions of each antibiotic either alone or in combination with constant concentration ratio of a β-lactamase inhibitor (2:1) were prepared in CAMHB.” left out
as §2

[5] = system: Klebsiella pneumoniae TEM-10; assay: as above; type: cell-based
Protocol: as §1, with “Serial twofold dilutions of each antibiotic either alone or in combination with constant concentration ratio of a β-lactamase inhibitor (2:1) were prepared in CAMHB.” left out
as §2

[6] = system: Pseudomonas aeruginosa PSE-3; assay: as above; type: cell-based
Protocol: as §1, with “Serial twofold dilutions of each antibiotic either alone or in combination with constant concentration ratio of a β-lactamase inhibitor (2:1) were prepared in CAMHB.” left out
as §2

[7] = system: Klebsiella pneumoniae TEM-1 hyperproduced; type: cell-based
Protocol: as §1, with “Serial twofold dilutions of each antibiotic either alone or in combination with constant concentration ratio of a β-lactamase inhibitor (2:1) were prepared in CAMHB.” left out
as §2

[8] = Table 6, LK-157 at constant 4 μg/mL in combination
[9] = Table 7, combination at constant concentration ratio (2:1)

CO/N=C(\C(=O)N[C@@H]1C(=O)N2C(C(=O)[O-])=C(C[N+]3(C)CCCC3)CS[C@H]12)c1csc(N)n1 [cefepime]
MIC (E. coli TEM-2): ≦0.025
MIC (E. coli SHV-3): 0.4 µg/mL
MIC (C. freundii AmpC): 0.8 µg/mL
MIC (Escherichia coli OXA-2; Escherichia coli OXA-2, functional group 2d, LK-157 in combination constant 4 μg/mL): 0.125 µg/mL
MIC (Escherichia coli OXA-3; Escherichia coli OXA-3, functional group 2d, LK-157 in combination constant 4 μg/mL): 0.125 µg/mL
MIC (Escherichia coli SHV-2A; functional group 2be, LK-157 in combination constant 4 μg/mL): 16 µg/mL
MIC (Escherichia coli SHV-3; Escherichia coli SHV-3, functional group 2be, LK-157 in combination constant 4 μg/mL): 4 µg/mL
MIC (Escherichia coli TEM-2; Escherichia coli TEM-2, functional group 2b, LK-157 in combination constant 4 μg/mL): 0.25 µg/mL
MIC (Escherichia coli TEM-31; Escherichia coli TEM-31, functional group 2br, LK-157 in combination constant 4 μg/mL): 0.125 µg/mL
MIC (Escherichia coli TEM-3; Escherichia coli TEM-3, functional group 2be, LK-157 in combination constant 4 μg/mL): 4 µg/mL
MIC ([1]; Klebsiella oxytoca K1 highperproduced, functional group 2be, first listed (r47), LK-157 in combination constant 4 μg/mL): 1 µg/mL
MIC ([1]; Klebsiella oxytoca K1 highperproduced, functional group 2be, second listed (r48), LK-157 in combination constant 4 μg/mL): 4 µg/mL
MIC ([2]; Pseudomonas aeruginosa CARB-3, functional group 2c, LK-157 in combination constant 4 μg/mL): 16 µg/mL

CO/N=C(\C(=O)N[C@@H]1C(=O)N2C(C(=O)O)=C(COC(C)=O)CS[C@H]12)c1csc(N)n1 [cefotaxime]
MIC (E. coli TEM-2): 0.1 µg/mL (≈ 0.22 µM)
MIC (E. coli SHV-3): 3.2 µg/mL
MIC (C. freundii AmpC): > 25.6 µg/mL
MIC (Escherichia coli FOX-1; [8]): 2 µg/mL
MIC (Escherichia coli FOX-2; [8]): 64 µg/mL
MIC (Escherichia coli OXA-7; [8]): 0.25 µg/mL
MIC (Escherichia coli SHV-1; [8]): 0.063 µg/mL
MIC (Escherichia coli SHV-4; [8]): 16 µg/mL
MIC (Escherichia coli TEM-21; [8]): 32 µg/mL
MIC (Escherichia coli TEM-36; [8]): 0.25 µg/mL
MIC (Escherichia coli TEM-8; [8]): 4 µg/mL
MIC [3, 8]: 16 µg/mL
MIC [4, 8]: 16 µg/mL
MIC [5, 8]: 0.5 µg/mL
MIC [6, 8]: 16 µg/mL
MIC (Escherichia coli OXA-2; Table 6, Escherichia coli OXA-2, LK-157 at constant 4 μg/mL in combination): 0.063 µg/mL
MIC (Escherichia coli OXA-3; Table 6, Escherichia coli OXA-3, LK-157 at constant 4 μg/mL in combination): 0.063 µg/mL
MIC (Escherichia coli SHV-2A; [8]): 8 µg/mL
MIC (Escherichia coli SHV-3; Table 6, Escherichia coli SHV-3, LK-157 at constant 4 μg/mL in combination): 32 µg/mL
MIC (Escherichia coli TEM-2; Table 6, Escherichia coli TEM-2, LK-157 at constant 4 μg/mL in combination): 0.063 µg/mL
MIC (Escherichia coli TEM-31; Table 6, Escherichia coli TEM-31, LK-157 at constant 4 μg/mL in combination): 0.063 µg/mL
MIC (Escherichia coli TEM-3; Table 6, Escherichia coli TEM-3, LK-157 at constant 4 μg/mL in combination): 16 µg/mL
MIC ([1]; Table 6, Klebsiella oxytoca K1 highperproduced, first listed strain, LK-157 at constant 4 μg/mL in combination): 1 µg/mL
MIC ([1]; Table 6, Klebsiella oxytoca K1 highperproduced, second listed strain, LK-157 at constant 4 μg/mL in combination): 1 µg/mL
MIC ([2]; Table 6, Pseudomonas aeruginosa CARB-3, LK-157 at constant 4 μg/mL in combination): 16 µg/mL
MIC [7, 8]: 0.063 µg/mL

CC(C)(O/N=C(\C(=O)N[C@@H]1C(=O)N2C(C(=O)[O-])=C(C[n+]3ccccc3)CS[C@H]12)c1csc(N)n1)C(=O)O [ceftazidime]
MIC (E. coli TEM-2): 1.6 µg/mL (≈ 2.93 µM)
MIC (E. coli SHV-3): 0.8 µg/mL
MIC (C. freundii AmpC): > 25.6 µg/mL
MIC (Escherichia coli FOX-1; [9]): 8 µg/mL
MIC (Escherichia coli FOX-2; [9]): ≧128 μg/mL
MIC (Escherichia coli OXA-7; [9]): 0.5 µg/mL
MIC (Escherichia coli SHV-1; [9]): 0.25 µg/mL
MIC (Escherichia coli SHV-4; [9]): ≧128 μg/mL
MIC (Escherichia coli TEM-21; [9]): 16 µg/mL
MIC (Escherichia coli TEM-36; [9]): 0.5 µg/mL
MIC (Escherichia coli TEM-8; [9]): ≧128 μg/mL
MIC [3, 9]: 64 µg/mL
MIC [4, 9]: ≧128 μg/mL
MIC [5, 9]: ≧128 μg/mL
MIC [6, 9]: 4 µg/mL
MIC (Escherichia coli OXA-2; Table 7, Escherichia coli OXA-2, combination at constant concentration ratio (2:1)): 1 µg/mL
MIC (Escherichia coli OXA-3; Table 7, Escherichia coli OXA-3, combination at constant concentration ratio (2:1)): 0.5 µg/mL
MIC (Escherichia coli SHV-2A; [9]): 4 µg/mL
MIC (Escherichia coli SHV-3; Table 7, Escherichia coli SHV-3, combination at constant concentration ratio (2:1)): 2 µg/mL
MIC (Escherichia coli TEM-2; Table 7, Escherichia coli TEM-2, combination at constant concentration ratio (2:1)): 0.5 µg/mL
MIC (Escherichia coli TEM-31; Table 7, Escherichia coli TEM-31, combination at constant concentration ratio (2:1)): 0.25 µg/mL
MIC (Escherichia coli TEM-3; Table 7, Escherichia coli TEM-3, combination at constant concentration ratio (2:1)): 32 µg/mL
MIC ([1]; Table 7, Klebsiella oxytoca K1 hyperproduced, first listed strain, combination at constant concentration ratio (2:1)): 1 µg/mL
MIC ([1]; Table 7, Klebsiella oxytoca K1 hyperproduced, second listed strain, combination at constant concentration ratio (2:1)): 0.5 µg/mL
MIC ([2]; Table 7, Pseudomonas aeruginosa CARB-3, combination at constant concentration ratio (2:1)): 2 µg/mL
MIC [7, 9]: 0.25 µg/mL
